Data from ChEMBL document CHEMBL1126095, “Incorporation of a novel conformationally restricted tyrosine analog into a cyclic, delta opioid receptor selective tetrapeptide (JOM-13) enhances delta receptor binding affinity and selectivity” (J Med Chem, 1992).
pKi: −log10 of the molar value. Positions of bridges follow the written chain, without caps; N, C: chain ends. Non-standard residues stand in square brackets, D forms with d. Residues, ends and D or L forms follow the SMILES beside them. Pen = CC(C)(S)[C@H](N)C(=O)O

Experiments:
[1] = biological target: Kappa-type opioid receptor (Cavia porcellus, UniProt P41144); experiment: Binding affinity against opioid receptor kappa from guinea pig brain homogenates, using [3H]U-69593 as radioligand.; format: tissue-based
Mu-type opioid receptor = Mu-type opioid receptor (Cavia porcellus, UniProt P97266); experiment: Binding affinity against opioid receptor mu in guinea pig brain homogenates, using [3H]DAMGO as radioligand.; format: tissue-based
[2] = Binding affinity against Opioid receptor delta 1 in guinea pig brain homogenates, using [3H]DPDPE as radioligand.

Kappa-type opioid receptor, sequence (P41144 whole entry): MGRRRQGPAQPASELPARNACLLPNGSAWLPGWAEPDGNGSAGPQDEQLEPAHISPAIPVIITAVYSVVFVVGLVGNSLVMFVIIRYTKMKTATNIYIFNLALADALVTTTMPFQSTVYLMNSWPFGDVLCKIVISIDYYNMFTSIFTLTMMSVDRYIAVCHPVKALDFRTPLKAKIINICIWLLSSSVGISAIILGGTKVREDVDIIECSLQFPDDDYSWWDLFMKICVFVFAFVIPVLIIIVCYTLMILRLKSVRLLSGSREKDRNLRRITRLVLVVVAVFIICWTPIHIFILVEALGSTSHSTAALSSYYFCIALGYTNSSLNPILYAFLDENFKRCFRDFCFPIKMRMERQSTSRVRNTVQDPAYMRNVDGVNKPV
Mu-type opioid receptor, sequence (P97266 whole entry): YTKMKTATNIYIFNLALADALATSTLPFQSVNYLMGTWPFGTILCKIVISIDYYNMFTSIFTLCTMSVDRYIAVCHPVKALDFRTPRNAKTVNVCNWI

| SMILES | pKi [1] | pKi (Mu-type opioid receptor) | pKi [2] |
| --- | --- | --- | --- |
| CC1(C)SSC[C@@H](NC(=O)[C@@H]2NCC[C@@H]2c2ccc(O)cc2)C(=O)N[C@@H](Cc2ccccc2)C(=O)N[C@@H]1C(=O)O | < 5.00 | 5.00 |  |
| CC1(C)SSC[C@@H](NC(=O)[C@H]2NCC[C@@H]2c2ccc(O)cc2)C(=O)N[C@@H](Cc2ccccc2)C(=O)N[C@@H]1C(=O)O | 5.00 | 6.98 |  |
| CC1(C)SSC[C@H](NC(=O)[C@@H](N)Cc2ccc(O)cc2)C(=O)N[C@@H](Cc2ccccc2)C(=O)N[C@@H]1C(=O)O (H-YCF[Pen]-OH; disulfide 2-4) |  |  | 8.75 |
